For data set [1], the system named is ABC cell lines (SU-DHL-2 and OCI-LY3). Description: Cell viability by ATP luminescence-based assay, ABC cell lines. As to conditions: 6 days, 1.0 μM EPZ-6438, 0.1 μM or 1.0 μM CPI-1205, wild type EZH2.
Description: (§1) Cell viability was determined based on the amount of ATP quantified by a luminescence-based assay.
Data set [2] relates to H3K27Me3 in GCB (WSU-DLCL2, Farage, KARPAS-422, SU-DHL-5) and ABC (SU-DHL-2, OCI-LY3) DLBCL cell lines. Description: H3K27Me3 levels by Western blot in GCB and ABC DLBCL cell lines, two EZH2 inhibitors. It counts as cell-based. As to conditions: 6 days; 0.1 or 1.0 μM; all GCB and ABC cell lines tested.
Data set [3] concerns GCB cell lines (WSU-DLCL2, Farage, KARPAS-422, and SU-DHL-5). Description: Cell viability by ATP luminescence-based assay, GCB cell lines. As to conditions: 6 days; 1.0 μM EPZ-6438, 0.1 μM or 1.0 μM CPI-1205; mutant and wild type GCB cell lines.
Description: as §1
For data set [4] the following is noted: cited from earlier work.

As to `COc1cc(C)[nH]c(=O)c1CNC(=O)c1c(C)n([C@H](C)C2CCN(CC(F)(F)F)CC2)c2ccccc12` [CPI-1205], the “cell viability (ATP)” value is given as “resistant” in data set [1] and “decreased cell viability” in data set [3]. The “H3K27Me3 levels (Western blot)” value in data set [2] is on record as “decreased H2K27Me3 levels”.

Regarding `CCN(c1cc(-c2ccc(CN3CCOCC3)cc2)cc(C(=O)NCc2c(C)cc(C)[nH]c2=O)c1C)C1CCOCC1` [tazemetostat], the “recommended phase II dose” value in data set [4] (twice daily (BID) or three times daily (TID) for 28-day cycles, subjects with R/R B-cell non-Hodgkin lymphoma or an advanced solid tumor) was 800 mg. Besides, in data set [4] (twice daily, human subjects, R/R B-cell lymphoma, 28-day cycles), the “maximum tolerated dose (MTD)” value is on record as 800 milligrams.

These data come from patent US20220298222A1, “COMBINATION THERAPY OF A T CELL THERAPY AND AN ENHANCER OF ZESTE HOMOLOG 2 (EZH2) INHIBITOR AND RELATED METHODS” (Juno Therapeutics, Inc., priority 2019, published 2022).
